Patent US11162951B2, “Membrane-impermeant fluorogenic chromophores” (PARIS SCIENCES ET LETTRES, priority 2017, dated 2021)
Where “and” joins values, the source holds several entries; their conditions need not be identical. Equal values may be shown once. Entries after “also recorded” stand apart in the source; their conditions may differ.

Assays:
[1] = biological target: T1, FAST (variant of the photoactive yellow protein (PYP), SEQ ID NO: 3) (Halorhodospira halophila, UniProt P16113, C69G/D97P/F96I/M100R/Q99S/T101G/T95M/Y94W/Y98T); experiment: Physico-chemical (absorption/fluorescence) properties of FAST:fluorogen complexes; assay type: physicochemical; details: for Brightness (ε×ϕ) / ε, molar absorption coefficient at λabs / λabs, wavelength of maximal absorption / λem, wavelength of maximal emission / ϕ, fluorescence quantum yield: FAST:fluorogen complex in PBS pH 7.4
T1 construct: His tag; made in house; host or cells: Rosetta(DE3)pLysS E. coli
T1 sequence (P16113 whole entry C69G/Y94W/T95M/F96I/D97P/Y98T/Q99S/M100R/T101G): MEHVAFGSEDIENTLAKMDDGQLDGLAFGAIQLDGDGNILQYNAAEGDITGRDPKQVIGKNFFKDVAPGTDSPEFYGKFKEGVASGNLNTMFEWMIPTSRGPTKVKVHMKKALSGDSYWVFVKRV
Description: In an embodiment, the fluorescence quantum yields after one-photon excitation ϕ are calculated from the relation: […]
Methods for measuring the brightness are well-known in the art. Brightness corresponds to the fluorescence output per emitter and is the product of the molar absorption coefficient (at the excitation wavelength) and the fluorescence quantum yield.
(§1) His-tagged FAST was expressed in Rosetta(DE3)pLysS E. coli (New England Biolabs). Cells were grown at 37° C. in Lysogeny Broth (LB) medium to OD600 nm 0.6. Expression was induced for 4 h by adding isopropyl β-D-1-thiogalactopyranoside (IPTG) to a final concentration of 1 mM. Cells were harvested by centrifugation (6,000×g for 15 min at 4° C.) and frozen. The cell pellet was resuspended in lysis buffer (phosphate buffer 50 mM, NaCl 150 mM, MgCl2 2.5 mM, protease inhibitor, DNase, pH 7.4) and sonicated (5 min at 20% of amplitude). The lysate was incubated for 2 h at 4° C. to allow DNA digestion by DNase. Cellular fragments were removed by centrifugation (15,000×g for 1 h at 4° C.). The supernatant was incubated overnight at 4° C. under gentle agitation with Ni-NTA agarose beads in phosphate buffered saline (PBS) (sodium phosphate 50 mM, NaCl 150 mM, pH 7.4) complemented with 10 mM Imidazole. Beads were washed with 20 volumes of PBS containing 20 mM Imidazole, and with 5 volumes of PBS complemented with 40 mM Imidazole. His-tagged proteins were eluted with 5 volumes of PBS complemented with 0.5 M Imidazole, followed by dialysis with PBS.
(§2) UV/Vis absorption spectra were recorded in 1 cm×1 cm quartz cuvettes (Hellma) on a diode array UV/Vis spectrophotometer (Evolution array, Thermo Scientific). Corrected fluorescence spectra upon one-photon excitation were recorded with a Photon Technology International QuantaMaster QM-1 spectrofluorimeter (PTI, Monmouth Junction, N.J.) equipped with a Peltier cell holder (TLC50, Quantum Northwest, Shoreline, Wash.).
(§3) Physico-chemical properties of FAST:fluorogen complexes in PBS pH 7.4 are described in Table 2 below: λabs, wavelength of maximal absorption; λem, wavelength of maximal emission; ε, molar absorption coefficient at λabs; ϕ, fluorescence quantum yield; KD affinity constant. The brightness is equal to ε×ϕ.

[2] = biological target: T1, FAST (variant of the photoactive yellow protein (PYP), SEQ ID NO: 3); experiment: biochemical; assay type: binding; details: for Kd: KD affinity constant, FAST:fluorogen complex in PBS pH 7.4
Description: In an embodiment, the thermodynamic dissociation constant KD is determined by spectrofluorometric titration as described in the Examples.
as §1, §2, §3

[3] = tested on: HeLa cells expressing FAST fused to mCherry in the cytoplasm; experiment: Cell exclusion after prolonged exposure, confocal imaging; assay type: cell-based; details: 5 μM, two hours, cytoplasmic FAST-mCherry
Description: (§4) The plasmid pAG211 for mammalian expression of FAST (fused also to mCherry as additional transfection marker) at the outer plasma membrane was obtained by inserting the sequence coding the protein of interest within the pDisplay plasmid (ThermoFisher) using Sal I and Bgl II restriction sites. The plasmid pAG96 for cytoplasmic expression of FAST fused to mCherry was previously reported (Plamont, M.-A. et al., 2016).
(§5) HeLa cells were cultured in DMEM supplemented with phenol red, Glutamax I, 10% (vol/vol) fetal calf serum (FCS), and 1% penicillin-streptomycin at 37° C. within a 5% CO2 atmosphere. For microscopic imaging, cells were seeded in μDish or μSlide IBIDI (Biovalley) coated with poly-L-lysine. Cells were transiently transfected using Genejuice (Merck) according to the manufacturer's protocol. Before imaging, cells were washed with PBS, and treated with DMEM media (without serum and phenol red) containing the fluorogens at the indicated concentration. Cells were imaged directly without washing.
(§6) Confocal micrographs were acquired on a Zeiss LSM 710 Laser Scanning Microscope equipped with a Plan Apochromat 63×/1.4 NA oil immersion objective. ZEN software was used to collect the data. Images were analyzed with Image J. Flow cytometry analyses were performed on an Accuri C6 cytometer (BD Biosciences).
Cell exclusion after prolonged exposure was then evaluated. […]

[4] = tested on: HeLa cells displaying FAST on the extracellular side (Ig κ-chain leader / PDGFR transmembrane domain); experiment: Selective labeling of cell-surface FAST-tagged proteins, confocal imaging; assay type: cell-based; details: for Localisation of fluorescent labeling of FAST-tagged protein: 5 min
Description: as §4, §5, §6
Next, the use of HBRAA-3E for the selective labeling of cell-surface FAST-tagged proteins was studied. A polypeptide was engineered comprising a FAST in between a murine Ig κ-chain leader sequence and the platelet derived growth factor receptor (PDGFR) transmembrane domain. FAST was fused at the […] of the PDGFR transmembrane domain, which anchors the protein to the plasma membrane. The resulting FAST-tagged protein was expressed transiently in HeLa cells.

Row | Structure (SMILES) | Brightness (ε×ϕ) [1] | ε, molar absorption coefficient at λabs [1] [mM⁻¹ cm⁻¹] | λabs, wavelength of maximal absorption [1] [nm] | λem, wavelength of maximal emission [1] [nm] | ϕ, fluorescence quantum yield [1] [%] | Affinity for FAST, in words [2] | Kd [2] | also measured
1 | O=C1NC(=S)S/C1=C\c1ccc(O)cc1 [HBR, 4-hydroxybenzylidene rhodanine, reference compound] | 4,000 | 44 | 467 | 527 | 9 |  |  | 
2 | O=C(O)CN1C(=O)/C(=C/c2ccc(O)cc2)SC1=S [HBRAA, (Z)-2-(5-(4-hydroxybenzylidene)-4-oxo-2-thioxothiazolidin-3-yl)acetic acid] |  |  | 488 | 555 |  | almost no affinity for FAST | > 20000 nM | 
3 | Cc1cc(/C=C2\SC(=S)N(CC(=O)O)C2=O)c(C)cc1O [HBRAA-2,5DM, (Z)-2-(5-(4-hydroxy-2,5-dimethylbenzylidene)-4-oxo-2-thioxothiazolidin-3-yl)acetic acid] | 3,200 | 63 | 519 | 566 | 5 | none of the complexes formed by di-substituted compounds HBRAA-2,5DM, HBRAA-3,5DM and HBRAA-3,5DMO has an affinity higher than the one of HBRAA-3M | 5400 nM | 
4 | COc1cc(O)ccc1/C=C1\SC(=S)N(CC(=O)O)C1=O [HBRAA-2OM, (Z)-2-(5-(4-hydroxy-2-methoxybenzylidene)-4-oxo-2-thioxothiazolidin-3-yl)acetic acid] | about 2,800 | 55 | 497 | 537 | 5 |  | 500 nM and 480 nM | Brightness (ε×ϕ) ([1]; listed as FAST:HBRAA-2OM): 2,800
5 | Cc1cc(/C=C2\SC(=S)N(CC(=O)O)C2=O)cc(C)c1O [HBRAA-3,5DM, (Z)-2-(5-(4-hydroxy-3,5-dimethylbenzylidene)-4-oxo-2-thioxothiazolidin-3-yl)acetic acid] |  |  | 522 | 571 | 4 | none of the complexes formed by di-substituted compounds HBRAA-2,5DM, HBRAA-3,5DM and HBRAA-3,5DMO has an affinity higher than the one of HBRAA-3M | > 20000 nM | 
6 | COc1cc(/C=C2\SC(=S)N(CC(=O)O)C2=O)cc(OC)c1O [HBRAA-3,5DOM, (Z)-2-(5-(4-hydroxy-3,5-dimethoxybenzylidene)-4-oxo-2-thioxothiazolidin-3-yl)acetic acid] |  |  | 532 | 606 | 1 | none of the complexes formed by di-substituted compounds HBRAA-2,5DM, HBRAA-3,5DM and HBRAA-3,5DMO has an affinity higher than the one of HBRAA-3M | > 20000 nM | 
7 | CCc1cc(/C=C2\SC(=S)N(CC(=O)O)C2=O)ccc1O [HBRAA-3E, (Z)-2-(5-(3-ethyl-4-hydroxybenzylidene)-4-oxo-2-thioxothiazolidin-3-yl)acetic acid] | about 4,900 | 61 | 505 | 559 | 8 |  | ~1300 nM and 1300 nM | Intracellular labeling (cell exclusion) [3]: no intracellular labeling; Red shift in absorption compared to FAST:HMBR [1]: 25 nm; Red shift in emission compared to FAST:HMBR [1]: 20 nm; Brightness (ε×ϕ) ([1]; listed as FAST:HBRAA-3E): 4,900; Localisation of fluorescent labeling of FAST-tagged protein ([4]; 5 μM): fluorescent labeling only at the plasma membrane; also recorded: revealed only surface-exposed proteins; Intracellular labeling upon longer incubation ([4]; 5 μM, 1 h): no intracellular labeling
8 | Cc1cc(/C=C2\SC(=S)N(CC(=O)O)C2=O)ccc1O [HBRAA-3M, (Z)-2-(5-(4-hydroxy-3-methylbenzylidene)-4-oxo-2-thioxothiazolidin-3-yl)acetic acid] | 3,400 | 56 | 502 | 557 | 6 |  | 6400 nM | Brightness compared with FAST:HMBR ([1]; in words): three-fold lower brightness
9 | CCOc1cc(/C=C2\SC(=S)N(CC(=O)O)C2=O)ccc1O [HBRAA-3OE, (Z)-2-(5-(4-hydroxy-3-ethoxybenzylidene)-4-oxo-2-thioxothiazolidin-3-yl)acetic acid] | about 3,700 | 62 | 525 | 575 | 6 |  | 1700 nM | Brightness (ε×ϕ) ([1]; listed as FAST:HBRAA-3OE): 3,700; Shift of absorption and emission of the FAST complex compared with HBRAA-3E ([1]; in words): further red-shifted the absorption and the emission
10 | COc1cc(/C=C2\SC(=S)N(CC(=O)O)C2=O)ccc1O [HBRAA-3OM, (Z)-2-(5-(4-hydroxy-3-methoxybenzylidene)-4-oxo-2-thioxothiazolidin-3-yl)acetic acid] |  |  | 520 | 572 | 2 | almost no affinity with FAST | > 20000 nM | 
11 | Cc1cc(/C=C2\SC(=S)NC2=O)ccc1O [HMBR, 4-hydroxy-3-methylbenzylidene rhodanine, reference compound] |  |  |  |  |  |  |  | Localisation of fluorescent labeling of FAST-tagged protein ([4]; 5 μM): labeling of FAST-tagged proteins both at the membrane and within the secretory pathway; also recorded: revealed membrane and intracellular proteins; Labeling after subsequent addition to cells pre-treated 1 h with HBRAA-3E ([4]; immediate imaging (<10 s)): revealed proteins within the secretory pathway
